Experimental data: the supplement of paper PMC7645387

Key:
Experiment in all cases: growth inhibition relative to DMSO control (fraction); higher = stronger growth inhibition
Details in all cases: treatment time: 6 days
MKL-1 = test system: MKL-1
Description: (§1)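 Drug combination matrices: GSK-LSD1 (0, 1, 10, 100 nM) was combined with a second epigenetic drug (0 to 10 uM) on MCC lines PeTa and MKL-1 and on HDFB fibroblasts for 6 days, in quadruplicate. Viability was read by CellTiter-Glo 2.0. The response is the fraction of growth inhibition relative to DMSO, as input to synergyfinder Bliss analysis.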

PeTa = test system: PeTa
Description: as §1

HDFB = test system: HDFB
Description: as §1

c1ccc([C@@H]2C[C@H]2NC2CCNCC2)cc1 [GSK-LSD1] + CCOC(=O)NCCCC(=O)NCCc1ccccc1 [Santacruzamate A]
growth inhibition
Details | partner concentration 0 nM | partner concentration 1 nM | partner concentration 10 nM | partner concentration 100 nM | partner concentration 1000 nM | partner concentration 10000 nM
HDFB, GSK-LSD1 concentration 0 nM | – | 0.0152 | 0.0273 | -0.00476 | 0.025 | -0.0257
HDFB, GSK-LSD1 concentration 1 nM | 0.0274 | 0.0683 | 0.0641 | 0.0608 | 0.0549 | 0.0385
HDFB, GSK-LSD1 concentration 10 nM | 0.103 | 0.132 | 0.111 | 0.109 | 0.0931 | 0.0944
HDFB, GSK-LSD1 concentration 100 nM | 0.209 | 0.215 | 0.245 | 0.258 | 0.258 | 0.248
MKL-1, GSK-LSD1 concentration 0 nM | – | 0.00478 | -0.00416 | -0.0025 | -0.0148 | -0.0477
MKL-1, GSK-LSD1 concentration 1 nM | 0.0491 | 0.0627 | 0.0768 | 0.068 | 0.072 | 0.014
MKL-1, GSK-LSD1 concentration 10 nM | 0.266 | 0.253 | 0.298 | 0.281 | 0.242 | 0.184
MKL-1, GSK-LSD1 concentration 100 nM | 0.748 | 0.763 | 0.741 | 0.763 | 0.696 | 0.755
PeTa, GSK-LSD1 concentration 0 nM | – | -0.00232 | 0.00932 | 0.0171 | -0.000556 | -0.0248
PeTa, GSK-LSD1 concentration 1 nM | 0.0188 | 0.0434 | 0.0394 | 0.0494 | 0.0221 | -0.00432
PeTa, GSK-LSD1 concentration 10 nM | 0.412 | 0.412 | 0.418 | 0.432 | 0.466 | 0.403
PeTa, GSK-LSD1 concentration 100 nM | 0.786 | 0.751 | 0.762 | 0.748 | 0.793 | 0.814

c1ccc([C@@H]2C[C@H]2NC2CCNCC2)cc1 [GSK-LSD1] + CN1CCN(c2ccc(-c3cccc(CN4CCOCC4)c3)cc2NC(=O)c2c[nH]c(=O)cc2C(F)(F)F)CC1 [OICR9429]
growth inhibition
Details | partner concentration 0 nM | partner concentration 1 nM | partner concentration 10 nM | partner concentration 100 nM | partner concentration 1000 nM | partner concentration 10000 nM
HDFB, GSK-LSD1 concentration 0 nM | – | -0.0114 | 0.00661 | -0.0286 | 0.11 | 0.593
HDFB, GSK-LSD1 concentration 1 nM | 0.0144 | 0.0294 | 0.0019 | 0.0389 | 0.171 | 0.68
HDFB, GSK-LSD1 concentration 10 nM | 0.091 | 0.0858 | 0.0542 | 0.0911 | 0.22 | 0.651
HDFB, GSK-LSD1 concentration 100 nM | 0.149 | 0.113 | 0.145 | 0.139 | 0.282 | 0.676
MKL-1, GSK-LSD1 concentration 0 nM | – | -0.0407 | -0.0602 | -0.0599 | -0.0444 | -0.00949
MKL-1, GSK-LSD1 concentration 1 nM | 0.0584 | 0.0967 | 0.0719 | 0.0573 | 0.0606 | 0.0783
MKL-1, GSK-LSD1 concentration 10 nM | 0.357 | 0.381 | 0.381 | 0.355 | 0.398 | 0.438
MKL-1, GSK-LSD1 concentration 100 nM | 0.717 | 0.695 | 0.709 | 0.735 | 0.775 | 0.797
PeTa, GSK-LSD1 concentration 0 nM | – | -0.0155 | -0.0439 | -0.00944 | 0.0255 | 0.143
PeTa, GSK-LSD1 concentration 1 nM | -0.0127 | -0.0233 | -0.0546 | -0.0748 | 0.0274 | 0.0895
PeTa, GSK-LSD1 concentration 10 nM | 0.451 | 0.456 | 0.365 | 0.381 | 0.437 | 0.509
PeTa, GSK-LSD1 concentration 100 nM | 0.808 | 0.808 | 0.787 | 0.806 | 0.827 | 0.863

c1ccc([C@@H]2C[C@H]2NC2CCNCC2)cc1 [GSK-LSD1] + Cc1cc2c(cc1N1C(=O)c3cccc4c(CCCO)ccc(c34)C1=O)n(C)c(=O)n2C [BAY299]
growth inhibition
Details | partner concentration 0 nM | partner concentration 1 nM | partner concentration 10 nM | partner concentration 100 nM | partner concentration 1000 nM | partner concentration 10000 nM
HDFB, GSK-LSD1 concentration 0 nM | – | -0.0107 | -0.0132 | 0.0763 | 0.607 | 0.697
HDFB, GSK-LSD1 concentration 1 nM | -0.0232 | -0.0193 | 0.0121 | 0.0867 | 0.635 | 0.702
HDFB, GSK-LSD1 concentration 10 nM | 0.076 | 0.0719 | 0.0472 | 0.207 | 0.674 | 0.727
HDFB, GSK-LSD1 concentration 100 nM | 0.0758 | 0.0715 | 0.0856 | 0.201 | 0.695 | 0.713
MKL-1, GSK-LSD1 concentration 0 nM | – | 0.0343 | -0.000673 | 0.0416 | 0.844 | 0.999
MKL-1, GSK-LSD1 concentration 1 nM | 0.104 | 0.0952 | 0.0872 | 0.0914 | 0.936 | 0.999
MKL-1, GSK-LSD1 concentration 10 nM | 0.516 | 0.425 | 0.457 | 0.475 | 0.972 | 1
MKL-1, GSK-LSD1 concentration 100 nM | 0.753 | 0.738 | 0.69 | 0.722 | 0.981 | 1
PeTa, GSK-LSD1 concentration 0 nM | – | -0.0148 | -0.062 | 0.00688 | 0.806 | 0.998
PeTa, GSK-LSD1 concentration 1 nM | -0.0592 | -0.0708 | -0.0758 | 0.0174 | 0.764 | 0.997
PeTa, GSK-LSD1 concentration 10 nM | 0.258 | 0.223 | 0.194 | 0.304 | 0.836 | 0.999
PeTa, GSK-LSD1 concentration 100 nM | 0.749 | 0.743 | 0.723 | 0.736 | 0.989 | 0.999

c1ccc([C@@H]2C[C@H]2NC2CCNCC2)cc1 [GSK-LSD1] + Cc1sc2c(c1C)C(c1ccc(Cl)cc1)=N[C@@H](CC(=O)OC(C)(C)C)c1nnc(C)n1-2 [(+)-JQ1]
growth inhibition
Details | partner concentration 0 nM | partner concentration 1 nM | partner concentration 10 nM | partner concentration 100 nM | partner concentration 1000 nM | partner concentration 10000 nM
HDFB, GSK-LSD1 concentration 0 nM | – | -0.0405 | -0.0664 | 0.475 | 0.743 | 0.784
HDFB, GSK-LSD1 concentration 1 nM | 0.0649 | 0.0389 | 0.0119 | 0.469 | 0.75 | 0.796
HDFB, GSK-LSD1 concentration 10 nM | 0.0598 | 0.0402 | 0.0248 | 0.531 | 0.761 | 0.792
HDFB, GSK-LSD1 concentration 100 nM | 0.0941 | 0.0548 | 0.115 | 0.607 | 0.773 | 0.817
MKL-1, GSK-LSD1 concentration 0 nM | – | -0.032 | -0.0639 | 0.818 | 0.994 | 0.997
MKL-1, GSK-LSD1 concentration 1 nM | 0.00341 | -0.0162 | -0.0305 | 0.799 | 0.994 | 0.998
MKL-1, GSK-LSD1 concentration 10 nM | 0.349 | 0.33 | 0.364 | 0.849 | 0.999 | 1
MKL-1, GSK-LSD1 concentration 100 nM | 0.792 | 0.766 | 0.766 | 0.917 | 0.999 | 1
PeTa, GSK-LSD1 concentration 0 nM | – | -0.0721 | -0.114 | 0.804 | 0.95 | 0.976
PeTa, GSK-LSD1 concentration 1 nM | -0.00975 | -0.0422 | -0.106 | 0.67 | 0.945 | 0.968
PeTa, GSK-LSD1 concentration 10 nM | 0.536 | 0.522 | 0.489 | 0.848 | 0.975 | 0.995
PeTa, GSK-LSD1 concentration 100 nM | 0.819 | 0.765 | 0.749 | 0.925 | 0.995 | 0.998

c1ccc([C@@H]2C[C@H]2NC2CCNCC2)cc1 [GSK-LSD1] + Nc1ccccc1NC(=O)c1ccc(CNC(=O)OCc2cccnc2)cc1 [Entinostat]
growth inhibition
Details | partner concentration 0 nM | partner concentration 1 nM | partner concentration 10 nM | partner concentration 100 nM | partner concentration 1000 nM | partner concentration 10000 nM
HDFB, GSK-LSD1 concentration 0 nM | – | 0.0329 | 0.154 | 0.451 | 0.823 | 0.933
HDFB, GSK-LSD1 concentration 1 nM | 0.0914 | 0.124 | 0.111 | 0.467 | 0.822 | 0.944
HDFB, GSK-LSD1 concentration 10 nM | 0.24 | 0.233 | 0.246 | 0.421 | 0.81 | 0.947
HDFB, GSK-LSD1 concentration 100 nM | 0.259 | 0.26 | 0.254 | 0.473 | 0.798 | 0.949
MKL-1, GSK-LSD1 concentration 0 nM | – | 0.0232 | 0.092 | 0.981 | 1 | 1
MKL-1, GSK-LSD1 concentration 1 nM | 0.121 | 0.169 | 0.164 | 0.956 | 1 | 1
MKL-1, GSK-LSD1 concentration 10 nM | 0.421 | 0.48 | 0.441 | 0.961 | 1 | 1
MKL-1, GSK-LSD1 concentration 100 nM | 0.761 | 0.745 | 0.649 | 0.958 | 1 | 1
PeTa, GSK-LSD1 concentration 0 nM | – | -0.000953 | 0.132 | 0.963 | 1 | 1
PeTa, GSK-LSD1 concentration 1 nM | 0.0344 | 0.0611 | 0.145 | 0.975 | 1 | 1
PeTa, GSK-LSD1 concentration 10 nM | 0.459 | 0.465 | 0.561 | 0.998 | 1 | 1
PeTa, GSK-LSD1 concentration 100 nM | 0.787 | 0.776 | 0.761 | 0.974 | 1 | 1

c1ccc([C@@H]2C[C@H]2NC2CCNCC2)cc1 [GSK-LSD1] + O=C(NC[C@H](O)CN1CCc2ccccc2C1)c1ccnc(NC2CCC2)c1 [GSK591]
growth inhibition
Details | partner concentration 0 nM | partner concentration 1 nM | partner concentration 10 nM | partner concentration 100 nM | partner concentration 1000 nM | partner concentration 10000 nM
HDFB, GSK-LSD1 concentration 0 nM | – | -0.0108 | 0.034 | 0.242 | 0.285 | 0.348
HDFB, GSK-LSD1 concentration 1 nM | -0.00486 | 0.0263 | 0.00718 | 0.199 | 0.324 | 0.372
HDFB, GSK-LSD1 concentration 10 nM | 0.0391 | 0.0408 | 0.0239 | 0.215 | 0.342 | 0.42
HDFB, GSK-LSD1 concentration 100 nM | 0.0873 | 0.0906 | 0.093 | 0.285 | 0.355 | 0.44
MKL-1, GSK-LSD1 concentration 0 nM | – | 0.00697 | 0.0188 | 0.133 | 0.269 | 0.324
MKL-1, GSK-LSD1 concentration 1 nM | 0.144 | 0.148 | 0.163 | 0.253 | 0.423 | 0.432
MKL-1, GSK-LSD1 concentration 10 nM | 0.46 | 0.501 | 0.536 | 0.626 | 0.773 | 0.789
MKL-1, GSK-LSD1 concentration 100 nM | 0.733 | 0.769 | 0.754 | 0.771 | 0.894 | 0.849
PeTa, GSK-LSD1 concentration 0 nM | – | -0.0144 | -0.0251 | 0.0642 | 0.125 | 0.21
PeTa, GSK-LSD1 concentration 1 nM | 0.11 | 0.135 | 0.102 | 0.201 | 0.287 | 0.302
PeTa, GSK-LSD1 concentration 10 nM | 0.615 | 0.624 | 0.611 | 0.64 | 0.731 | 0.679
PeTa, GSK-LSD1 concentration 100 nM | 0.761 | 0.746 | 0.73 | 0.779 | 0.866 | 0.797
